Experiment: recombinant barcode read abundance after kanamycin selection (control-corrected) (log10(CPM+1)); higher = more efficient recombination; sequences stand for … in AGTGCAGAGAAAATCGGCCAGTTTTCTCTGCCTGCAGTCCGCATGCCGT…AGATTTATGCAGCGGACTGCCTTTCTCCCAAAGTGATAAACCGGACAGTATCATGGACCGGTTTTCCCGGTAATCCGTATTTGCAAGGTTGGTTTCACT; site = the 11-nt target
Procedure, shortened: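 Two replicates per condition were plated: chloramphenicol/ampicillin LB agar for the control, and chloramphenicol/ampicillin/kanamycin with 0.1 mM IPTG for selection. The pooled E. coli screen behind them paired targets with IS621 bridge RNA target-binding loops. Recombination efficiency is expressed from averaged, control-corrected barcode counts per million at recombinant junctions, as log10(CPM+1).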
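Note: IS621 recombinase and bridge RNA in Escherichia coli cells.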

Sequence | recombinant barcode read abundance (log10)
GAAGTCTCTTGGGTTCTAACCTGTTGCCT (site GAAGTCTCTAG) | 2.59
GAAGTCTCTTGGGTTCTAACCTGTTGCCT (site GTAGTCCCTAG) | 0.0661
GAATCGACTTGGGTTCTAACCTGTTGCCT (site AGGGTACCTCT) | 0.192
GAATCGACTTGGGTTCTAACCTGTTGCCT (site GAATCGACTAG) | 0.421
GAATCTTCTTGGGTTCTAACCTGTTGCTT (site CAATCGTCTAA) | 0.0978
GAATCTTCTTGGGTTCTAACCTGTTGCTT (site GAATCTTCTAA) | 0.0983
GACAAACCTTGGGTTCTAACCTGTTGCGG (site GACAAACCTCC) | 1.64
GACAAACCTTGGGTTCTAACCTGTTGCGG (site GACACAACTCC) | 0.0381
GACACAACTTGGGTTCTAACCTGTTGCGG (site GACAAACCTCC) | 0.0119
GACACAACTTGGGTTCTAACCTGTTGCGG (site GACACAACTCC) | 1.14
GACACACCTTGGGTTCTAACCTGTTGCAT (site GACACACCTAT) | 1.02
GACACACCTTGGGTTCTAACCTGTTGCAT (site GTCACGCCTAT) | 0.0207
GACACCTCTTGGGTTCTAACCTGTTGCCG (site GACACCTCTCG) | 1.12
GACACCTCTTGGGTTCTAACCTGTTGCCG (site TCTGAAACTAA) | 0.157
GACACCTCTTGGGTTCTAACCTGTTGCTT (site GACACCTCTAA) | 1.03
GACACCTCTTGGGTTCTAACCTGTTGCTT (site GACACGTCTAG) | 0.461
GACACGCCTTGGGTTCTAACCTGTTGCTT (site GACACGCCTAA) | 0.201
GACACGCCTTGGGTTCTAACCTGTTGCTT (site GACACGCCTAC) | 0.0239
GACACGCCTTGGGTTCTAACCTGTTGCTT (site GACACGCCTAG) | 0.0922
GACACGCCTTGGGTTCTAACCTGTTGCTT (site GACACGCCTAT) | 0.0718
GACACTGCTTGGGTTCTAACCTGTTGCCT (site GAAACTGCTAG) | 0.274
GACACTGCTTGGGTTCTAACCTGTTGCCT (site GACACTGCTAG) | 0.403
GACACTGCTTGGGTTCTAACCTGTTGCCT (site GAGACTGCTAG) | 0.044
GACACTGCTTGGGTTCTAACCTGTTGCCT (site GATACTGCTAG) | 0.233
GACAGGCCTTGGGTTCTAACCTGTTGCGT (site CTGCTAGCTCT) | 0.278
GACAGGCCTTGGGTTCTAACCTGTTGCGT (site GACAGGCCTAC) | 1.31

Sequence | recombinant barcode read abundance (log10)
GACATACCTTGGGTTCTAACCTGTTGCCT (site GACATACCTAG) | 0.794
GACATACCTTGGGTTCTAACCTGTTGCCT (site GACCTACCTAG) | 0.273
GACATACCTTGGGTTCTAACCTGTTGCCT (site GACGTACCTAG) | 0.412
GACATACCTTGGGTTCTAACCTGTTGCCT (site GACTTACCTAG) | 0.251
GACATCGCTTGGGTTCTAACCTGTTGCCT (site GACATCACTAG) | 0.0851
GACATCGCTTGGGTTCTAACCTGTTGCCT (site GACATCCCTAG) | 0.0326
GACATCGCTTGGGTTCTAACCTGTTGCCT (site GACATCGCTAG) | 1.64
GACATCGCTTGGGTTCTAACCTGTTGCCT (site GACATCTCTAG) | 0.641
GACCACTCTTGGGTTCTAACCTGTTGCCT (site AACCACTCTAG) | 1.4
GACCACTCTTGGGTTCTAACCTGTTGCCT (site CACCACTCTAG) | 1.2
GACCACTCTTGGGTTCTAACCTGTTGCCT (site GACCACTCTAG) | 2.39
GACCACTCTTGGGTTCTAACCTGTTGCCT (site TACCACTCTAG) | 1.42
GACCAGCCTTGGGTTCTAACCTGTTGCAT (site GACCAGCCTAA) | 0.106
GACCAGCCTTGGGTTCTAACCTGTTGCAT (site GACCAGCCTAC) | 0.74
GACCAGCCTTGGGTTCTAACCTGTTGCAT (site GACCAGCCTAG) | 0.466
GACCAGCCTTGGGTTCTAACCTGTTGCAT (site GACCAGCCTAT) | 1.82
GACCAGCCTTGGGTTCTAACCTGTTGCGT (site GACCAGCCTAA) | 0.104
GACCAGCCTTGGGTTCTAACCTGTTGCGT (site GACCAGCCTAC) | 2.4
GACCAGCCTTGGGTTCTAACCTGTTGCGT (site GACCAGCCTAG) | 0.266
GACCAGCCTTGGGTTCTAACCTGTTGCGT (site GACCAGCCTAT) | 1.32
GACCAGCCTTGGGTTCTAACCTGTTGCTT (site GACCAGCCTAA) | 1.59
GACCAGCCTTGGGTTCTAACCTGTTGCTT (site GACCAGCCTAC) | 0.994
GACCAGCCTTGGGTTCTAACCTGTTGCTT (site GACCAGCCTAG) | 1.29
GACCAGCCTTGGGTTCTAACCTGTTGCTT (site GACCAGCCTAT) | 0.746
GACCCACCTTGGGTTCTAACCTGTTGCCT (site AACCCACCTAG) | 1.64
GACCCACCTTGGGTTCTAACCTGTTGCCT (site CACCCACCTAG) | 0.814

Sequence | recombinant barcode read abundance (log10)
GACCCACCTTGGGTTCTAACCTGTTGCCT (site GACCCACCTAG) | 1.76
GACCCACCTTGGGTTCTAACCTGTTGCCT (site TACCCACCTAG) | 1.4
GACCCATCTTGGGTTCTAACCTGTTGCCT (site GACACAACTAG) | 0.0316
GACCCATCTTGGGTTCTAACCTGTTGCCT (site GACCCATCTAG) | 0.683
GACCGCGCTTGGGTTCTAACCTGTTGCCT (site GACCGAGCTAG) | 0.672
GACCGCGCTTGGGTTCTAACCTGTTGCCT (site GACCGCGCTAG) | 1.05
GACCGCGCTTGGGTTCTAACCTGTTGCCT (site GACCGGGCTAG) | 0.0432
GACCGCGCTTGGGTTCTAACCTGTTGCCT (site GACCGTGCTAG) | 0.0542
GACCGGACTTGGGTTCTAACCTGTTGCGT (site GACCGGACTAC) | 2.44
GACCGGACTTGGGTTCTAACCTGTTGCGT (site GAGTGGACTAC) | 0.0356
GACGAAGCTTGGGTTCTAACCTGTTGCCT (site GACGAAGCTAG) | 0.348
GACGAAGCTTGGGTTCTAACCTGTTGCCT (site TCCGAAGCTAG) | 0.0613
GACGATCCTTGGGTTCTAACCTGTTGCAT (site GACGATCCTAT) | 0.547
GACGATCCTTGGGTTCTAACCTGTTGCAT (site GGCGAACCTAT) | 0.077
GACGATCCTTGGGTTCTAACCTGTTGCCT (site GACGATCCTAG) | 0.66
GACGATCCTTGGGTTCTAACCTGTTGCCT (site GCCGATCCTAG) | 0.0719
GACGATCCTTGGGTTCTAACCTGTTGCCT (site GGCGATCCTAG) | 0.255
GACGATCCTTGGGTTCTAACCTGTTGCCT (site GTCGATCCTAG) | 0.0852
GACGCGGCTTGGGTTCTAACCTGTTGCCT (site GACGCGGCTAG) | 0.184
GACGCGGCTTGGGTTCTAACCTGTTGCCT (site TTGCGAACTCT) | 0.059
GACGGTCCTTGGGTTCTAACCTGTTGCGG (site GACGGTCCTCC) | 2.15
GACGGTCCTTGGGTTCTAACCTGTTGCGG (site GATGGTCCTCC) | 0.418
GACGTGTCTTGGGTTCTAACCTGTTGCCG (site GACGTGTCTCG) | 0.408
GACGTGTCTTGGGTTCTAACCTGTTGCCG (site GGCGTGTCTCC) | 0.0409
GACGTGTCTTGGGTTCTAACCTGTTGCGT (site AGTCATACTTG) | 0
